{
  "source": "patent US8008291B2",
  "about": "(Mimetica Pty Ltd, priority 2008, dated 2011)",
  "data": [
    {"target": "T1, human MC5R (hMC5R) (Homo sapiens, UniProt P33032)", "T1 construct": "purchased Perkin Elmer RBXMC5M400UA", "T1 sequence (P33032 whole entry)": "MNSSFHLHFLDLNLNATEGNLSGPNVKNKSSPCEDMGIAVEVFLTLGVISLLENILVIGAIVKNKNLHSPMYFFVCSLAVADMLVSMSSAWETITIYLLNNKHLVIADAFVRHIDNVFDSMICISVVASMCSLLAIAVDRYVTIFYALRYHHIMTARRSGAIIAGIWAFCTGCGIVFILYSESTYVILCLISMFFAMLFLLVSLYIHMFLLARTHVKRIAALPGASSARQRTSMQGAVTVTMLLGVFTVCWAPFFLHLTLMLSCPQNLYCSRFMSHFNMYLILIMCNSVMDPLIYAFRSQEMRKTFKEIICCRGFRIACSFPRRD", "experiment": "Human MC5R radioligand binding assay (membranes, [125I] NDP-MSH displacement)", "settings": "hMC5R binding; tested as trifluoroacetate or hydrochloride salts, or free bases; read-out: MC5R radioligand IC50", "in_short": "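Frozen human MC5R membranes incubated with test compound and in-house iodogen-labeled, HPLC-purified [125I]NDP-MSH for 1 hr at 37° C. Binding measured as displacement of the radioligand.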", "units": {"IC50": "nM"}, "values": [
      {"smiles": "NCC[C@@H]1N[C@H](CNC(=O)C=Cc2ccccc2)CCN(CC(c2ccccc2)c2ccccc2)C1=O", "note": "[Compound 279, N-(((3S,5S)-3-(2-aminoethyl)-1-(2,2-diphenylethyl)-2-oxo-1,4-diazepan-5-yl)methyl)cinnamamide]", "IC50": "< 1000"},
      {"smiles": "O=C(C=Cc1ccccc1)NC[C@@H]1CCN(CC(c2ccccc2)c2ccccc2)C(=O)[C@H](CCN2CCCCC2)N1", "note": "[Compound 283, N-(((3S,5S)-1-(2,2-diphenylethyl)-2-oxo-3-(2-(piperidin-1-yl)ethyl)-1,4-diazepan-5-yl)methyl)cinnamamide]", "IC50": "< 100"},
      {"smiles": "O=C(/C=C/c1ccc(F)cc1)NC[C@@H]1CCN(CC(c2ccccc2)c2ccccc2)C(=O)[C@H](CCN2CCCCC2)N1", "note": "[Compound 284, (E)-N-(((3S,5S)-1-(2,2-diphenylethyl)-2-oxo-3-(2-(piperidin-1-yl)ethyl)-1,4-diazepan-5-yl)methyl)-3-(4-fluorophenyl)acrylamide]", "IC50": "< 10"},
      {"smiles": "Cc1ccc(/C=C/C(=O)NC[C@@H]2CCN(CC(c3ccccc3)c3ccccc3)C(=O)[C@H](CCN3CCCCC3)N2)cc1", "note": "[Compound 285, (E)-N-(((3S,5S)-1-(2,2-diphenylethyl)-2-oxo-3-(2-(piperidin-1-yl)ethyl)-1,4-diazepan-5-yl)methyl)-3-p-tolylacrylamide]", "IC50": "< 100"},
      {"smiles": "Cc1cc(C)cc(CN2CC[C@@H](CNC(=O)c3ccc4ccccc4c3)N[C@@H](CCCNC(=N)N)C2=O)c1", "note": "[Compound 286, N-(((3S,5S)-1-(3,5-dimethylbenzyl)-3-(3-guanidinopropyl)-2-oxo-1,4-diazepan-5-yl)methyl)-2-naphthamide]", "IC50": "< 1000"},
      {"smiles": "N=C(N)NCCC[C@@H]1N[C@H](CNC(=O)c2ccc3ccccc3c2)CCN(C[C@@H](NC(=O)c2ccccc2)c2ccccc2)C1=O", "note": "[Compound 287, N-(((3S,5S)-1-((S)-2-benzamido-2-phenylethyl)-3-(3-guanidinopropyl)-2-oxo-1,4-diazepan-5-yl)methyl)-2-naphthamide]", "IC50": "< 1000"},
      {"smiles": "N=C(N)NCCC[C@@H]1N[C@H](CNC(=O)c2ccc3ccccc3c2)CCN(C[C@H](NC(=O)c2ccccc2)c2ccccc2)C1=O", "note": "[Compound 288, N-(((3S,5S)-1-((R)-2-benzamido-2-phenylethyl)-3-(3-guanidinopropyl)-2-oxo-1,4-diazepan-5-yl)methyl)-2-naphthamide]", "IC50": "< 10000"},
      {"smiles": "COC(CN1CC[C@@H](CNC(=O)c2ccc3ccccc3c2)N[C@@H](CCCNC(=N)N)C1=O)c1ccccc1", "note": "(stereo partly drawn) [Compound 289, N-(((3S,5S)-3-(3-guanidinopropyl)-1-(2-methoxy-2-phenylethyl)-2-oxo-1,4-diazepan-5-yl)methyl)-2-naphthamide]", "IC50": "< 1000"},
      {"smiles": "CCCOC(CN1CC[C@@H](CNC(=O)c2ccc3ccccc3c2)N[C@@H](CCCNC(=N)N)C1=O)c1ccccc1", "note": "(stereo partly drawn) [Compound 290, N-(((3S,5S)-3-(3-guanidinopropyl)-2-oxo-1-(2-phenyl-2-propoxyethyl)-1,4-diazepan-5-yl)methyl)-2-naphthamide]", "IC50": "< 1000"},
      {"smiles": "N=C(N)NCCC[C@@H]1N[C@H](CNC(=O)c2ccc3ccccc3c2)CCN(CC(OCc2ccccc2)c2ccccc2)C1=O", "note": "(stereo partly drawn) [Compound 291, N-(((3S,5S)-1-(2-(benzyloxy)-2-phenylethyl)-3-(3-guanidinopropyl)-2-oxo-1,4-diazepan-5-yl)methyl)-2-naphthamide]", "IC50": "< 1000"},
      {"smiles": "C=CCOC(CN1CC[C@@H](CNC(=O)c2ccc3ccccc3c2)N[C@@H](CCCNC(=N)N)C1=O)c1ccccc1", "note": "(stereo partly drawn) [Compound 292, N-(((3S,5S)-1-(2-(allyloxy)-2-phenylethyl)-3-(3-guanidinopropyl)-2-oxo-1,4-diazepan-5-yl)methyl)-2-naphthamide]", "IC50": "< 1000"},
      {"smiles": "CC(=O)NCCC[C@@H]1N[C@H](CNC(=O)/C=C/c2ccc(C)cc2)CCN(CC(c2ccccc2)c2ccccc2)C1=O", "note": "[Compound 293, (E)-N-(((3S,5S)-3-(3-acetamidopropyl)-1-(2,2-diphenylethyl)-2-oxo-1,4-diazepan-5-yl)methyl)-3-p-tolylacrylamide]", "IC50": "< 1000"},
      {"smiles": "Cc1ccc(/C=C/C(=O)NC[C@@H]2CCN(CC(c3ccccc3)c3ccccc3)C(=O)[C@H](CCCNC(=O)C3CCCCC3)N2)cc1", "note": "[Compound 294, N-(3-((2S,7S)-4-(2,2-diphenylethyl)-3-oxo-7-(((E)-3-p-tolylacrylamido)methyl)-1,4-diazepan-2-yl)propyl)cyclohexanecarboxamide]", "IC50": "< 1000"},
      {"smiles": "N=C(N)NCCC[C@@H]1N[C@H](CNC(=O)c2ccc3ccccc3c2)CCN(CC(Oc2ccccc2)c2ccccc2)C1=O", "note": "(stereo partly drawn) [Compound 295, N-(((3S,5S)-3-(3-guanidinopropyl)-2-oxo-1-(2-phenoxy-2-phenylethyl)-1,4-diazepan-5-yl)methyl)-2-naphthamide]", "IC50": "< 100"},
      {"smiles": "CCOC(=O)C(CN1CC[C@@H](CNC(=O)c2ccc3ccccc3c2)N[C@@H](CCCNC(=N)N)C1=O)c1ccccc1", "note": "(stereo partly drawn) [Compound 296, ethyl 3-((3S,5S)-5-((2-naphthamido)methyl)-3-(3-guanidinopropyl)-2-oxo-1,4-diazepan-1-yl)-2-phenylpropanoate]", "IC50": "< 1000"},
      {"smiles": "CCC(CC)CN1CC[C@@H](CNC(=O)c2ccc3ccccc3c2)N[C@@H](CCCNC(=N)N)C1=O", "note": "[Compound 297, N-(((3S,5S)-1-(2-ethylbutyl)-3-(3-guanidinopropyl)-2-oxo-1,4-diazepan-5-yl)methyl)-2-naphthamide]", "IC50": "< 1000"},
      {"smiles": "CC1CC(C)CC(CN2CC[C@@H](CNC(=O)c3ccc4ccccc4c3)N[C@@H](CCCNC(=N)N)C2=O)C1", "note": "(stereo partly drawn) [Compound 298, N-(((3S,5S)-1-((3,5-dimethylcyclohexyl)methyl)-3-(3-guanidinopropyl)-2-oxo-1,4-diazepan-5-yl)methyl)-2-naphthamide]", "IC50": "< 100"},
      {"smiles": "NCC[C@@H]1N[C@H](CCNC(=O)c2ccc3ccccc3c2)CCN(CC(c2ccccc2)c2ccccc2)C1=O", "note": "[Compound 303, N-(2-((3S,5R)-1-(2,2-diphenylethyl)-2-oxo-3-(2-aminoethyl)-1,4-diazepan-5-yl)ethyl)-2-naphthamide]", "IC50": "< 1000"},
      {"smiles": "O=C(NCC[C@@H]1CCN(CC(c2ccccc2)c2ccccc2)C(=O)[C@H](CCN2CCCCC2)N1)c1ccc2ccccc2c1", "note": "[Compound 306, N-(2-((3S,5R)-1-(2,2-diphenylethyl)-2-oxo-3-(2-(piperidin-1-yl)ethyl)-1,4-diazepan-5-yl)ethyl)-2-naphthamide]", "IC50": "< 1000"},
      {"smiles": "CN(C)C(=O)C(CN1CC[C@@H](CNC(=O)c2ccc3ccccc3c2)N[C@@H](CCCNC(=N)N)C1=O)c1ccccc1", "note": "(stereo partly drawn) [Compound 307, N-(((3S,5S)-1-(3-(dimethylamino)-3-oxo-2-phenylpropyl)-3-(3-guanidinopropyl)-2-oxo-1,4-diazepan-5-yl)methyl)-2-naphthamide]", "IC50": "< 10000"},
      {"smiles": "N=C(N)NCCC[C@@H]1N[C@H](CNC(=O)c2ccc3ccccc3c2)CCN(Cc2cc(F)cc(Cl)c2)C1=O", "note": "[Compound 310, N-(((3S,5S)-1-(3-chloro-5-fluorobenzyl)-3-(3-guanidinopropyl)-2-oxo-1,4-diazepan-5-yl)methyl)-2-naphthamide]", "IC50": "< 1000"},
      {"smiles": "N=C(N)NCCC[C@@H]1N[C@H](CNC(=O)c2ccc3ccccc3c2)CCN(Cc2cc(F)cc(F)c2)C1=O", "note": "[Compound 311, N-(((3S,5S)-1-(3,5-difluorobenzyl)-3-(3-guanidinopropyl)-2-oxo-1,4-diazepan-5-yl)methyl)-2-naphthamide]", "IC50": "< 1000"},
      {"smiles": "NCCC[C@@H]1N[C@H](CNC(=O)c2ccc3ccccc3c2)CCN(Cc2cc(F)cc(Cl)c2)C1=O", "note": "[Compound 312, N-(((3S,5S)-3-(3-aminopropyl)-1-(3-chloro-5-fluorobenzyl)-2-oxo-1,4-diazepan-5-yl)methyl)-2-naphthamide]", "IC50": "< 1000"},
      {"smiles": "NCCC[C@@H]1N[C@H](CNC(=O)c2ccc3ccccc3c2)CCN(Cc2cc(F)cc(F)c2)C1=O", "note": "[Compound 313, N-(((3S,5S)-3-(3-aminopropyl)-1-(3,5-difluorobenzyl)-2-oxo-1,4-diazepan-5-yl)methyl)-2-naphthamide]", "IC50": "< 10000"},
      {"smiles": "NCCC[C@@H]1N[C@H](CNC(=O)c2ccc3ccccc3c2)CCN(Cc2cc(Cl)ccc2Cl)C1=O", "note": "[Compound 314, N-(((3S,5S)-3-(3-aminopropyl)-1-(2,5-dichlorobenzyl)-2-oxo-1,4-diazepan-5-yl)methyl)-2-naphthamide]", "IC50": "< 10000"},
      {"smiles": "NCCC[C@@H]1N[C@H](CNC(=O)c2ccc3ccccc3c2)CCN(Cc2c(Cl)cccc2Cl)C1=O", "note": "[Compound 315, N-(((3S,5S)-3-(3-aminopropyl)-1-(2,6-dichlorobenzyl)-2-oxo-1,4-diazepan-5-yl)methyl)-2-naphthamide]", "IC50": "< 10000"},
      {"smiles": "COc1cc(CN2CC[C@@H](CNC(=O)c3ccc4ccccc4c3)N[C@@H](CCCN)C2=O)cc(OC)c1", "note": "[Compound 316, N-(((3S,5S)-3-(3-aminopropyl)-1-(3,5-dimethoxybenzyl)-2-oxo-1,4-diazepan-5-yl)methyl)-2-naphthamide]", "IC50": "< 10000"},
      {"smiles": "NCCC[C@@H]1N[C@H](CNC(=O)c2ccc3ccccc3c2)CCN(Cc2ccccc2Cl)C1=O", "note": "[Compound 317, N-(((3S,5S)-3-(3-aminopropyl)-1-(2-chlorobenzyl)-2-oxo-1,4-diazepan-5-yl)methyl)-2-naphthamide]", "IC50": "< 10000"},
      {"smiles": "NCCC[C@@H]1N[C@H](CNC(=O)c2ccc3ccccc3c2)CCN(Cc2cccc(Cl)c2Cl)C1=O", "note": "[Compound 318, N-(((3S,5S)-3-(3-aminopropyl)-1-(2,3-dichlorobenzyl)-2-oxo-1,4-diazepan-5-yl)methyl)-2-naphthamide]", "IC50": "< 10000"},
      {"smiles": "NCCC[C@@H]1N[C@H](CNC(=O)c2ccc3ccccc3c2)CCN(Cc2ccc(Cl)cc2Cl)C1=O", "note": "[Compound 319, N-(((3S,5S)-3-(3-aminopropyl)-1-(2,4-dichlorobenzyl)-2-oxo-1,4-diazepan-5-yl)methyl)-2-naphthamide]", "IC50": "< 1000"},
      {"smiles": "NCCC[C@@H]1N[C@H](CNC(=O)c2ccc3ccccc3c2)CCN(Cc2ccc(Cl)c(Cl)c2)C1=O", "note": "[Compound 320, N-(((3S,5S)-3-(3-aminopropyl)-1-(3,4-dichlorobenzyl)-2-oxo-1,4-diazepan-5-yl)methyl)-2-naphthamide]", "IC50": "< 10000"}
    ]}
  ]
}
